Experimental data taken from patent US20060069132A1, “Azolecarboxamide herbicides” (priority 2004, published 2006).

How the values were obtained:
Assay in all cases: Test J Compounds 2 and 6 alone and in combination with other herbicides, foliage spray
Conditions in all cases: applied alone
wild oat (AVEFA) = assay type: in vivo, Avena fatua; parameters: key: 0 = no effect, 100 = complete control
Description: (§1) Colby's Equation was used to calculate the expected additive herbicidal effect of the mixtures of Compound 6 with Harmony® Extra (i.e. a 2:1 mixture by weight of thifensulfuron-methyl and tribenuron-methyl). Colby's Equation (Colby, S. R. “Calculating Synergistic and Antagonistic Responses of Herbicide Combinations,” Weeds, 15(1), pp 20-22 (1967)) calculates the expected additive effect of herbicidal mixtures, and for two active ingredients is of the form: Pa+b=Pa+Pb−(PaPb/100) wherein • Pa+b is the percentage effect of the mixture expected from additive contribution of the individual components, • Pa is the observed percentage effect of the first active ingredient at the same use rate as in the mixture, and • Pb is the observed percentage effect of the second active ingredient at the same use rate as in the mixture.
(§2) Seeds of test plants consisting of barnyardgrass (ECHCG; Echinochloa crus-galli (L.) Beauv.), blackgrass (ALOMY; Alopecurus myosuroides Huds.), Surinam grass (BRADC; Urochloa decumbens (Staph) R. D. Webster, previously named Brachiaria decumbens Stapf), cocklebur (XANST, Xanthium strumarium L.), corn (ZEAMD, Zea mays L. cv. ‘Pioneer 33G26’), large crabgrass (DIGSA, Digitaria sanguinalis (L.) Scop.), giant foxtail (SETFA, Setaria faberi Herrm.), lambsquarters (CHEAL, Chenopodium album L.), morningglory (IPOCO, Ipomoea coccinea L.), pigweed (AMARE, Amaranthus retroflexus L.), velvetleaf (ABUTH, Abutilon theophrasti Medik.) wheat (TRZAS, Triticum aestivum L. cv. ‘Recital’) and wild oat (AVEFA, Avena fatua L.) were planted in Redi-Earth® planting medium (Scotts Company, 14111 Scottslawn Road, Marysville, Ohio 43041) comprising spaghnum peat moss and vermiculite. Seeds of small-seeded species were planted about 1 cm deep; larger seeds were planted about 2.5 cm deep. Plants were grown in a greenhouse using supplemental lighting to maintain a photoperiod of about 14 hours; daytime and nighttime temperatures were about 24-30° C. and 22-25° C., respectively. Balanced fertilizer was applied through the watering system. The plants were grown for 7 to 11 days so that at time of treatment the plants ranged in height from 2 to 18 cm (1- to 4-leaf stage). Treatments consisted of Compounds 2 and 6 (technical material), atrazine (90DF), terbacil (Sinbar® 80DF), hexazinone (Velpar® 75WG), diuron (Karmex® 80WP) and paraquat (Gramoxone® Extra, 37%) alone and in combination, suspended or dissolved in an aqueous solvent comprising a nonionic surfactant and applied as a foliage spray using a volume of 541 L/ha. Each treatment was triply replicated. […] Treated plants and controls were maintained in the greenhouse and watered as needed with care to not wet the foliage for the first 24 hours after treatment. The effects on the plants 15 days after treatment were visually compared to untreated controls. Plant response ratings, listed in Table J as the means of the thee replicates, are based on a scale of 0 to 100 where 0 is no effect and 100 is complete control. Also listed in Table J are the expected effects for the mixtures calculated using Colby's Equation.

barnyardgrass (ECHCG) = assay type: in vivo, Echinochloa crus-galli; parameters: key: percentage herbicidal effect (observed)
Description: as §1, §2

pigweed (AMARE) = assay type: in vivo, Amaranthus retroflexus; parameters: key: 0 = no effect, 100 = complete control
Description: as §1, §2

velvetleaf (ABUTH) = assay type: in vivo, Abutilon theophrasti; parameters: key: 0 = no effect, 100 = complete control
Description: as §1, §2

morningglory (IPOCO) = assay type: in vivo, Ipomoea coccinea; parameters: key: 0 = no effect, 100 = complete control
Description: as §2

Surinam grass (BRADC) = assay type: in vivo, Urochloa decumbens; parameters: key: 0 = no effect, 100 = complete control
Description: as §1, §2

large crabgrass (DIGSA) = assay type: in vivo, Digitaria sanguinalis; parameters: key to DIGSA Obsd.: 0 = no effect, 100 = complete control
Description: as §1, §2

corn (ZEAMD) = assay type: in vivo, Zea mays; parameters: key: percentage herbicidal effect (observed)
Description: as §1, §2

cocklebur (XANST) = assay type: in vivo, Xanthium strumarium; parameters: key: 0 = no effect, 100 = complete control
Description: as §2

wheat (TRZAS) = assay type: in vivo, Triticum aestivum; parameters: key: 0 = no effect, 100 = complete control
Description: as §1, §2

blackgrass (ALOMY) = assay type: in vivo, Alopecurus myosuroides; parameters: key: 0 = no effect, 100 = complete control
Description: as §1, §2

giant foxtail (SETFA) = assay type: in vivo, Setaria faberi; parameters: key: 0 = no effect, 100 = complete control
Description: as §2

lambsquarters (CHEAL) = assay type: in vivo, Chenopodium album; parameters: key: % herbicidal effect (observed)
Description: as §1, §2

CCNc1nc(Cl)nc(NC(C)C)n1 [atrazine]
AVEFA Obsd. (wild oat (AVEFA); 125 g a.i./ha): 13 | AVEFA Obsd. (wild oat (AVEFA); 250 g a.i./ha): 28 | ECHCG Obsd. (barnyardgrass (ECHCG); 125 g a.i./ha): 20 | ECHCG Obsd. (barnyardgrass (ECHCG); 250 g a.i./ha): 23 | AMARE Obsd. (pigweed (AMARE); 125 g a.i./ha): 38 | AMARE Obsd. (pigweed (AMARE); 250 g a.i./ha): 75 | ABUTH Obsd. (velvetleaf (ABUTH); 125 g a.i./ha): 15 | ABUTH Obsd. (velvetleaf (ABUTH); 250 g a.i./ha): 25 | IPOCO Obsd. (morningglory (IPOCO); 125 g a.i./ha): 52 | IPOCO Obsd. (morningglory (IPOCO); 250 g a.i./ha): 75 | BRADC Obsd. (Surinam grass (BRADC); 125 g a.i./ha): 15 | BRADC Obsd. (Surinam grass (BRADC); 250 g a.i./ha): 5 | DIGSA Obsd. (large crabgrass (DIGSA); 125 g a.i./ha): 5 | DIGSA Obsd. (large crabgrass (DIGSA); 250 g a.i./ha): 5 | ZEAMD Obsd. (corn (ZEAMD); 125 g a.i./ha): 3 | ZEAMD Obsd. (corn (ZEAMD); 250 g a.i./ha): 12 | XANST Obsd. (cocklebur (XANST); 125 g a.i./ha): 45 | XANST Obsd. (cocklebur (XANST); 250 g a.i./ha): 72 | TRZAS Obsd. (wheat (TRZAS); 125 g a.i./ha): 3 | TRZAS Obsd. (wheat (TRZAS); 250 g a.i./ha): 8 | ALOMY Obsd. (blackgrass (ALOMY); 125 g a.i./ha): 3 | ALOMY Obsd. (blackgrass (ALOMY); 250 g a.i./ha): 28 | SETFA Obsd. (giant foxtail (SETFA); 125 g a.i./ha): 0 | SETFA Obsd. (giant foxtail (SETFA); 250 g a.i./ha): 18 | CHEAL Obsd. (lambsquarters (CHEAL); 125 g a.i./ha): 67 | CHEAL Obsd. (lambsquarters (CHEAL); 250 g a.i./ha): 95

CN(C)C(=O)Nc1ccc(Cl)c(Cl)c1 [diuron]
AVEFA Obsd. (wild oat (AVEFA); 250 g a.i./ha): 15 | AVEFA Obsd. (wild oat (AVEFA); 500 g a.i./ha): 47 | ECHCG Obsd. (barnyardgrass (ECHCG); 250 g a.i./ha): 62 | ECHCG Obsd. (barnyardgrass (ECHCG); 500 g a.i./ha): 98 | AMARE Obsd. (pigweed (AMARE); 250 g a.i./ha): 95 | AMARE Obsd. (pigweed (AMARE); 500 g a.i./ha): 100 | ABUTH Obsd. (velvetleaf (ABUTH); 250 g a.i./ha): 77 | ABUTH Obsd. (velvetleaf (ABUTH); 500 g a.i./ha): 100 | IPOCO Obsd. (morningglory (IPOCO); 250 g a.i./ha): 92 | IPOCO Obsd. (morningglory (IPOCO); 500 g a.i./ha): 100 | BRADC Obsd. (Surinam grass (BRADC); 250 g a.i./ha): 68 | BRADC Obsd. (Surinam grass (BRADC); 500 g a.i./ha): 85 | DIGSA Obsd. (large crabgrass (DIGSA); 250 g a.i./ha): 68 | DIGSA Obsd. (large crabgrass (DIGSA); 500 g a.i./ha): 63 | ZEAMD Obsd. (corn (ZEAMD); 250 g a.i./ha): 20 | ZEAMD Obsd. (corn (ZEAMD); 500 g a.i./ha): 28 | XANST Obsd. (cocklebur (XANST); 250 g a.i./ha): 93 | XANST Obsd. (cocklebur (XANST); 500 g a.i./ha): 100 | TRZAS Obsd. (wheat (TRZAS); 250 g a.i./ha): 30 | TRZAS Obsd. (wheat (TRZAS); 500 g a.i./ha): 40 | ALOMY Obsd. (blackgrass (ALOMY); 250 g a.i./ha): 25 | ALOMY Obsd. (blackgrass (ALOMY); 500 g a.i./ha): 43 | SETFA Obsd. (giant foxtail (SETFA); 250 g a.i./ha): 35 | SETFA Obsd. (giant foxtail (SETFA); 500 g a.i./ha): 67 | CHEAL Obsd. (lambsquarters (CHEAL); 250 g a.i./ha): 98 | CHEAL Obsd. (lambsquarters (CHEAL); 500 g a.i./ha): 100
